# Test results from paper PMC6704710, “Preclinical evaluation of 3D185, a novel potent inhibitor of FGFR1/2/3 and CSF-1R, in FGFR-dependent and macrophage-dominant cancer models” (Journal of Experimental & Clinical Cancer Research : CR, 2019).
# Legend:
# Experiment in all cases: Eurofins kinase panel
# Type in all cases: biochemical
# Settings in all cases: read-out: Inhibition rate (%)
# Tie2(Y897S)(h) = target: T1, Tie2(Y897S)(h) (Homo sapiens, UniProt Q02763, Y897S)
# T1 construct: purchased Eurofins (KinaseProfiler)
# T1 sequence (Q02763 23-1124 Y897S): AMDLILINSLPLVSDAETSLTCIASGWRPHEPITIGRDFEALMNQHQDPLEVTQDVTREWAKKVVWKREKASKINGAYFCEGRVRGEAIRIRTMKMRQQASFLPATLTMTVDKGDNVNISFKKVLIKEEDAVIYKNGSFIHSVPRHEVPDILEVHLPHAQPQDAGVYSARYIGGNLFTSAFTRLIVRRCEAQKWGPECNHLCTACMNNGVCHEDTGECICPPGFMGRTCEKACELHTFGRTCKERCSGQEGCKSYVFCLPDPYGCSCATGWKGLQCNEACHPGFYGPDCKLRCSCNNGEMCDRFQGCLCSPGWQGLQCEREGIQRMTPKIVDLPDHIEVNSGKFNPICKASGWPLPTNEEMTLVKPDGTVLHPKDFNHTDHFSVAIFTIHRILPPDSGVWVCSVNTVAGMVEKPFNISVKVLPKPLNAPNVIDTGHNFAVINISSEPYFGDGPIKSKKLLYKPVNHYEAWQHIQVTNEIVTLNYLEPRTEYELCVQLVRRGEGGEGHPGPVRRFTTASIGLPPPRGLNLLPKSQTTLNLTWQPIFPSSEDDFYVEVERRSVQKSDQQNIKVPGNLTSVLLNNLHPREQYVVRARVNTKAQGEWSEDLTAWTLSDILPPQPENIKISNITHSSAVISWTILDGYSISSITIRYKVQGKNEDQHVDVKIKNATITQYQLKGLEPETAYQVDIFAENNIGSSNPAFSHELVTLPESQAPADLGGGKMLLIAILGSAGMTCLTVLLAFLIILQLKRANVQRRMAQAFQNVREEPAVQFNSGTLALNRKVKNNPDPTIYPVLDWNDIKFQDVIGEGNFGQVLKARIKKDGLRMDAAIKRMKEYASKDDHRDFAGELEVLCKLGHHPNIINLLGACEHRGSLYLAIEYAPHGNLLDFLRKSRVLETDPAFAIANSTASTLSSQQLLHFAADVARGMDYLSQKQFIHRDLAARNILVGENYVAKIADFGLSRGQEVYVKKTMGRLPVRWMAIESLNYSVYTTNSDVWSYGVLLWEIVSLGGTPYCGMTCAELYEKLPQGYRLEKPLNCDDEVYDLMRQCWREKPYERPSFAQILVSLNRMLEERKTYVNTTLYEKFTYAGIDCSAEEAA
# Description: (§1) Active FGFR1–4, VEGFR1, KDR, VEGFR3, PDGFRα and PDGFRβ proteins were purchased from Eurofins (Fremont, United States), and kinase activity was assessed using ELISA, as previously reported. […]. Increasing concentrations of ATP were diluted for the kinase reaction in the ATP competition assay. CSF-1R kinase activity was analyzed using the Z’-LYTE™ Kinase Assay Kit (Thermo Fisher, United States). The assay formats are described in the SelectScreen Kinase Profiling Service Zlyte protocol. IC50 values were calculated by dose-response curve fitting using Prism (Graph Pad).
# Rse(h) = target: T2, Rse(h) (Homo sapiens, UniProt Q06418)
# T2 construct: purchased Eurofins (KinaseProfiler)
# T2 sequence (Q06418 41-890): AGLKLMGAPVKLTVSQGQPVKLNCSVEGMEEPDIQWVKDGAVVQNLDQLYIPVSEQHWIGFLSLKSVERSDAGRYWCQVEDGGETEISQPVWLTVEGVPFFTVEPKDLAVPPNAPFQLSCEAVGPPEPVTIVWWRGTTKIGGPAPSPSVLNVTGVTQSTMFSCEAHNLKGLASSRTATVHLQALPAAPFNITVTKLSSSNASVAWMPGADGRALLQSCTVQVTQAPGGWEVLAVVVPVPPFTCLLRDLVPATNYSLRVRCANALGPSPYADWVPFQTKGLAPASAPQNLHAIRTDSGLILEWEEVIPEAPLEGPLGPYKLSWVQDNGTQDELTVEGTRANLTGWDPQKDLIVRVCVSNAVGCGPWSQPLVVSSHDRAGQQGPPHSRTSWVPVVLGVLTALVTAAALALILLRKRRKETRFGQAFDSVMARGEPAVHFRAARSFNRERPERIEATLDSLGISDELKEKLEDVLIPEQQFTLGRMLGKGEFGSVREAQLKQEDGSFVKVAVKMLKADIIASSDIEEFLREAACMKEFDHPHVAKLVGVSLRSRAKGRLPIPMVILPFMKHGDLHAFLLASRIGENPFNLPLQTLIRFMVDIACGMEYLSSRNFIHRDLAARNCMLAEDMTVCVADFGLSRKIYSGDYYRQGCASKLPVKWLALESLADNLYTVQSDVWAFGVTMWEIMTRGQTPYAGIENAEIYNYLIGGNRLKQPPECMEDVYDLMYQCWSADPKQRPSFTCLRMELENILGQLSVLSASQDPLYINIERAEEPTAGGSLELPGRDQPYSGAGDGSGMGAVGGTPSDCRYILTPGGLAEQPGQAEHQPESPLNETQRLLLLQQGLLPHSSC
# Description: as §1
# MAPK2(h) = target: T3, MAPK2(h) (Homo sapiens, UniProt P28482)
# T3 construct: purchased Eurofins (KinaseProfiler)
# T3 sequence (P28482 whole entry): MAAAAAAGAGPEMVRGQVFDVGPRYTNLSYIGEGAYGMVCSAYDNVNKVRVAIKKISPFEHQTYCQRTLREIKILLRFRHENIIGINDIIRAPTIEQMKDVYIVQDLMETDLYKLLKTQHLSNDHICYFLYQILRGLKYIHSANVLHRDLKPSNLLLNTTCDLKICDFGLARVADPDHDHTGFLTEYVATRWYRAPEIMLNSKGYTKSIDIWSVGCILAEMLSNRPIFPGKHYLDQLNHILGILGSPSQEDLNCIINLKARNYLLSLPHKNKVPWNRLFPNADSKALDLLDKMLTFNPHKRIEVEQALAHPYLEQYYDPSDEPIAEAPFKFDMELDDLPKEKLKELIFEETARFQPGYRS
# Description: as §1
# ASK1(h) = target: T4, ASK1(h) (Homo sapiens, UniProt Q99683)
# T4 construct: purchased Eurofins (KinaseProfiler)
# T4 sequence (Q99683 1-1374): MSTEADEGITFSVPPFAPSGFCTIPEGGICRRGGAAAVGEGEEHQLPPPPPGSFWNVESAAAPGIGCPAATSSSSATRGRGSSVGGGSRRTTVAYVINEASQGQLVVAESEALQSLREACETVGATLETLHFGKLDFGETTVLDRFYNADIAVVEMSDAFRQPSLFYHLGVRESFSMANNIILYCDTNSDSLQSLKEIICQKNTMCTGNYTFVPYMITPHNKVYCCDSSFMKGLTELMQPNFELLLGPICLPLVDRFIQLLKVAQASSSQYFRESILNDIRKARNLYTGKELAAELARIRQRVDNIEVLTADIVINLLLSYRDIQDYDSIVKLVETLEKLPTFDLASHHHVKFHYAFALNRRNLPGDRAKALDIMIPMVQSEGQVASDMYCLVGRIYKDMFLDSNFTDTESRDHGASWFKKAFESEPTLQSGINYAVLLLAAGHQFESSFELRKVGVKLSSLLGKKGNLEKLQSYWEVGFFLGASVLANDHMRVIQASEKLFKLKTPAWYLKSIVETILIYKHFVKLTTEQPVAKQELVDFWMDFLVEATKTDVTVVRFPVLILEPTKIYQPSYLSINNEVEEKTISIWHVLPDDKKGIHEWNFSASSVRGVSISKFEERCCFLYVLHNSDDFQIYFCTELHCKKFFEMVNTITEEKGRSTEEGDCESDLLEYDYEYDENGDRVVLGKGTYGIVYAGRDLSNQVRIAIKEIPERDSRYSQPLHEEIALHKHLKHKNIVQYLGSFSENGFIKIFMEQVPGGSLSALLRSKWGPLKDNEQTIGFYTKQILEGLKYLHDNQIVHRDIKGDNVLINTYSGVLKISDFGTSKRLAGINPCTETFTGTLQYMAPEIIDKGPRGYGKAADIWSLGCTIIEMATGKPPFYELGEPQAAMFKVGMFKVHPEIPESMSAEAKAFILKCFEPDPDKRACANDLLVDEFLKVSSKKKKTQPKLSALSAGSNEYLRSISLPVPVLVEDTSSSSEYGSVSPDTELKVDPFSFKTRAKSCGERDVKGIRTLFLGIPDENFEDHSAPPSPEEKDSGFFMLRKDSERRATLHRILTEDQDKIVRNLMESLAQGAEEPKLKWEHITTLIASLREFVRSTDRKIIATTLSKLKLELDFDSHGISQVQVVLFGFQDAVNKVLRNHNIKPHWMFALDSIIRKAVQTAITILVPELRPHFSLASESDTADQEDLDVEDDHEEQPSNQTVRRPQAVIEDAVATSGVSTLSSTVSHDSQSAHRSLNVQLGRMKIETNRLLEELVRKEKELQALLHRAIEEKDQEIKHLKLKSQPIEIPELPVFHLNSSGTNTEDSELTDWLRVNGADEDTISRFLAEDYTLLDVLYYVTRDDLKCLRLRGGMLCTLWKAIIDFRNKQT
# Description: as §1
# MARK3(h) = target: T5, MARK3(h) (Homo sapiens, UniProt P27448)
# T5 construct: purchased Eurofins (KinaseProfiler)
# T5 sequence (P27448 whole entry): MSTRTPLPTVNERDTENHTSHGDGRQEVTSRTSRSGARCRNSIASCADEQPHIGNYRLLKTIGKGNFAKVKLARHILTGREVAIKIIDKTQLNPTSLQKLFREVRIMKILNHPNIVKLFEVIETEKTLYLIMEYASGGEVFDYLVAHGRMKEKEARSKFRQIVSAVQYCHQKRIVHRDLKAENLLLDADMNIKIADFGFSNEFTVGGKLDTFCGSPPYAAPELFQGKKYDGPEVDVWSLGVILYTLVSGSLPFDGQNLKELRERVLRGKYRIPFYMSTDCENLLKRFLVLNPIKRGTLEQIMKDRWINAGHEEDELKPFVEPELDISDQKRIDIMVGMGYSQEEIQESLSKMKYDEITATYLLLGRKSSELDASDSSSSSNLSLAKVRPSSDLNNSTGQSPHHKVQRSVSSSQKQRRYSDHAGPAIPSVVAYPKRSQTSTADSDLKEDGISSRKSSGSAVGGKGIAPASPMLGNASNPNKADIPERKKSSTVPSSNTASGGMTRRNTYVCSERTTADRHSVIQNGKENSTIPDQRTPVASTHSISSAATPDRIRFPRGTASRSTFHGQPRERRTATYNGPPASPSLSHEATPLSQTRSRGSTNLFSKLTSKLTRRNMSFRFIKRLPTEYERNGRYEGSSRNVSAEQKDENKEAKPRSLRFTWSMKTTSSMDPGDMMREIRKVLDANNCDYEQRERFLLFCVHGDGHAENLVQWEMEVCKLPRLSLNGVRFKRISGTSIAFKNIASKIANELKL
# Description: as §1
structure (smiles),measurement,setting,value
COc1cc(OC)c(Cl)c(-c2ccc3c(NC(=O)c4ccc(N5CCNC(C)(C)C5)cc4)n[nH]c3n2)c1Cl [3D185],inhibition at 0.01 µM,Tie2(Y897S)(h); 10 nM,14%
same,inhibition at 0.1 µM,Tie2(Y897S)(h); 100 nM,39%
same,inhibition at 1 µM,Tie2(Y897S)(h); 1000 nM,88%
same,inhibition at 0.01 µM,Rse(h); 10 nM,5%
same,inhibition at 0.1 µM,Rse(h); 100 nM,-2%
same,inhibition at 1 µM,Rse(h); 1000 nM,16%
same,inhibition at 0.01 µM,MAPK2(h); 10 nM,-5%
same,inhibition at 0.1 µM,MAPK2(h); 100 nM,-3%
same,inhibition at 1 µM,MAPK2(h); 1000 nM,3%
same,inhibition at 0.01 µM,ASK1(h); 10 nM,-6%
same,inhibition at 0.1 µM,ASK1(h); 100 nM,-7%
same,inhibition at 1 µM,ASK1(h); 1000 nM,-2%
same,inhibition at 0.01 µM,MARK3(h); 10 nM,7%
same,inhibition at 0.1 µM,MARK3(h); 100 nM,-6%
same,inhibition at 1 µM,MARK3(h); 1000 nM,-4%
